In patent US9670231B2, “Fused tricyclic amide compounds as multiple kinase inhibitors” (BEIGENE, LTD., priority 2013, dated 2017):
pIC50: −log10 of the molar value.

Assays:
Type in all cases: biochemical
B-Raf (V600E) = B-Raf (V600E) (Homo sapiens (Human), UniProt P15056, V600E); experiment: Raf IC50 assay, TR-FRET, B-Raf (V600E); settings: 0.1 mM ATP; read-out: IC50 BRAF-V600E
Procedure: The enzyme was incubated with the compounds disclosed herein at room temperature for 60 minutes and the reactions were initiated by the addition of ATP and GST-MEK1. After reaction at room temperature for 60 minutes, an equal volume of stop/detection solution was added according to the manufacture's instruction (CisBio Bioassays). […] The IC50 for each compound was derived from fitting the dose-response % inhibition data to the four-parameter logistic model by Graphpad Prism software.

[1] = target: EGFR T790M/L858R kinase domain (Homo sapiens (Human), UniProt P00533, L858R/T790M); experiment: EGFR enzymatic assay, TR-FRET, EGFR T790M/L858R
Procedure: (§1) Compounds disclosed herein were tested against WT EGFR kinase domain (aa.669-1210, Carna Biosciences, 08-115), EGFR T790M/L858R kinase domain (aa.669-1210, Carna Biosciences, 08-510) and EGFR L858R kinase domain (aa.669-1210, Carna Biosciences, 08-502) in assays based on time-resolved fluorescence-resonance energy transfer methodology. The assay was carried out in 384-well low volume black plate in a reaction mixture containing EGFR kinases, 20 LM for EGFR WT and T790M/L858R, and 125 LM for EGFR L858R), biotin-TK substrate and 0-5 LM compounds in buffer containing 50 mM HEPES pH7.5, 10 mM MgCl2, 1 mM EGTA, 0.01% Brij-35, 2.5 mM DTT, 0.1% BSA. The kinase was incubated with the compounds disclosed herein at room temperature for 120 minutes and the reaction was initiated by the addition of ATP and biotin-TK substrate. After reaction at room temperature for 30 minutes, an equal volume of stop/detection solution was added according to the manufacture's instruction (CisBio Bioassays). The stop/detection solution contained TK-Antibody-Cryptate and Streptavidin-XL665 in buffer containing 25 mM Tris pH7.4, 400 mM KF, 50 mM EDTA, 0.01% BSA, 0.01% Triton X-100. Plates were sealed and incubated at room temperature for 1 hour, and the TR-FRET signals were read on BMG PHERAstar FS instrument. The IC50 of an inhibitor was derived from fitting the % inhibition data at each compound concentration to the four-parameter logistic equation by Graphpad Prism software.

EGFR L858R kinase domain = EGFR L858R kinase domain (Homo sapiens (Human), UniProt P00533, L858R); experiment: EGFR enzymatic assay, TR-FRET, EGFR L858R
Procedure: as §1

WT EGFR kinase domain = WT EGFR kinase domain (Homo sapiens (Human), UniProt P00533); experiment: EGFR enzymatic assay, TR-FRET, WT EGFR
Procedure: as §1

Chain of WT EGFR kinase domain (P00533 669-1210): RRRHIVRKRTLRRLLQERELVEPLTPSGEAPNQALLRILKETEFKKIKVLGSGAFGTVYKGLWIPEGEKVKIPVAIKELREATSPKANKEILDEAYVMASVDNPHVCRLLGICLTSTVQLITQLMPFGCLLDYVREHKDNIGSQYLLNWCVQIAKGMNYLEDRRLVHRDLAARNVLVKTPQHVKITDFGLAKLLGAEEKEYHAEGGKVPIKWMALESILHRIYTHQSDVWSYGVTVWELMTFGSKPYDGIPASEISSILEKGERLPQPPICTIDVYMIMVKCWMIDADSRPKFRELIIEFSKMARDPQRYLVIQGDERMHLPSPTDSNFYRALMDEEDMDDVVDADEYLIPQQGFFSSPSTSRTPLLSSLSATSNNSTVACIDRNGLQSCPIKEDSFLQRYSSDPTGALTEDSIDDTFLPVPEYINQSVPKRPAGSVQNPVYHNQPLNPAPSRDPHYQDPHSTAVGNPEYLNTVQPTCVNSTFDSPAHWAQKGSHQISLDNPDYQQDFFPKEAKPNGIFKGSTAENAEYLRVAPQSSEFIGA
Chain of EGFR T790M/L858R kinase domain (P00533 669-1210 T790M/L858R): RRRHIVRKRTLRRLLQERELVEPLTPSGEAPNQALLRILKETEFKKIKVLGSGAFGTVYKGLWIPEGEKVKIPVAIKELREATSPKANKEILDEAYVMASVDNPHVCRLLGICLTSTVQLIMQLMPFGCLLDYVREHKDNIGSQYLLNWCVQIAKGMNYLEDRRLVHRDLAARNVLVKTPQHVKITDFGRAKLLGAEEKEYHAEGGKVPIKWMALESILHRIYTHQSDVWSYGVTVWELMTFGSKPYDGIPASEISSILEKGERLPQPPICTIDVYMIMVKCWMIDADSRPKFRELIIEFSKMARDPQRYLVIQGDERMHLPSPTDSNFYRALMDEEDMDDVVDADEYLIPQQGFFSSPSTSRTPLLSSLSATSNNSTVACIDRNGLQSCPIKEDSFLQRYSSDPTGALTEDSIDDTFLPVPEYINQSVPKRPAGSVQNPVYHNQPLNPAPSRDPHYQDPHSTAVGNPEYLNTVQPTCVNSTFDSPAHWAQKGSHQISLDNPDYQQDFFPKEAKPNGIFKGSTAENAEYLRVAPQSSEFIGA
Chain of EGFR L858R kinase domain (P00533 669-1210 L858R): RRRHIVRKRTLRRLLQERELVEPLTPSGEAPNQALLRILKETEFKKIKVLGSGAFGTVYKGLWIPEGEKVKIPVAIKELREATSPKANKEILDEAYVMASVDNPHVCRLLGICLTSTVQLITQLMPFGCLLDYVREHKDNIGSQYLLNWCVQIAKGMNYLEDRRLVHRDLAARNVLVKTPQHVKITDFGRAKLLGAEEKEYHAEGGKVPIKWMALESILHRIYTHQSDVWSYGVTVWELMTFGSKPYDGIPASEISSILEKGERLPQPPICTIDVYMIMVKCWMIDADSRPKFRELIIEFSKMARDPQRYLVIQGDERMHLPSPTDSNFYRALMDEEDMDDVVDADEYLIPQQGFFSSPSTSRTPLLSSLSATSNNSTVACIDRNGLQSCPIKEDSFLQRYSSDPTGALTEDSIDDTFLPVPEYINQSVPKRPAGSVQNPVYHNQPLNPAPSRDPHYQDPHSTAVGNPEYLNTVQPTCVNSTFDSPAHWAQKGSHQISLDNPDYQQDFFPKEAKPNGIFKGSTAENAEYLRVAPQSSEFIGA
Chain of B-Raf (V600E) (P15056 whole entry V600E): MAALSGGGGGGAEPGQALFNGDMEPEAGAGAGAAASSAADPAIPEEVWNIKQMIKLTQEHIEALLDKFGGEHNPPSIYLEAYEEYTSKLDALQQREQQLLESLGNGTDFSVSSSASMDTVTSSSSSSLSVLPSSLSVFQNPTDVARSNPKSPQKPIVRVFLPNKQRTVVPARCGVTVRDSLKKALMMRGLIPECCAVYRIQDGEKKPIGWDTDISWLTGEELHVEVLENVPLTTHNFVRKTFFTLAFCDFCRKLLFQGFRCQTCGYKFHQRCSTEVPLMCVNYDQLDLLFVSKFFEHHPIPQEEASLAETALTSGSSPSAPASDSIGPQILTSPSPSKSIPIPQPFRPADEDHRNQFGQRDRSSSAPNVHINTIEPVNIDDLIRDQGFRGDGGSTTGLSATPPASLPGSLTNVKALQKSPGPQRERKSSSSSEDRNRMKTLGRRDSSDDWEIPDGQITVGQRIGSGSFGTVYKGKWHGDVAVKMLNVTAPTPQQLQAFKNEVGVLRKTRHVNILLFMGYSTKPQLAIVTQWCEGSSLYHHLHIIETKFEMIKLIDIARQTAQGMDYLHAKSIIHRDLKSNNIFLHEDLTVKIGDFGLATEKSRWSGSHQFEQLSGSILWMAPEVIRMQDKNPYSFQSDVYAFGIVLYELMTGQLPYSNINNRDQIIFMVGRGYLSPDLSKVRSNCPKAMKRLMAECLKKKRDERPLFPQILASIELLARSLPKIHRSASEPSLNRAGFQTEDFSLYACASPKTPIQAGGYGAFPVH

SMILES	pIC50 (B-Raf (V600E))	pIC50 [1]	pIC50 (EGFR L858R kinase domain)	pIC50 (WT EGFR kinase domain)
CCCCCCC(=O)N[C@@H]1[C@H]2Oc3ccc(Oc4ccnc5c4CCC(=O)N5)cc3[C@@H]12 [Compound 1.68]	9.11	7.02	7.15	7.01
CN1CCN(Cc2ccc(C(=O)N[C@@H]3[C@H]4Oc5ccc(Oc6ccnc7c6CCC(=O)N7)cc5[C@@H]34)cc2)CC1 [Compound 1.11]	8.23	7.74	9.24	8.89
CN1CCN(Cc2ccc(C(=O)N[C@@H]3[C@H]4Oc5ccc(Oc6ccnc7c6CNC(=O)N7)cc5[C@@H]34)cc2C(F)(F)F)CC1 [Compound 2.7]	7.80	10.08	9.82	9.17
CNC(=O)c1cc(Oc2ccc3c(c2)[C@H]2[C@H](NC(=O)c4ccc(CN5CCN(C)CC5)c(C(F)(F)F)c4)[C@H]2O3)ccn1 [Compound 2.4]	7.31	8.14	8.39	8.17
CN1CCN(Cc2ccc(C(=O)N[C@@H]3[C@H]4Oc5ccc(Oc6ccnc7c6CCC(=O)N7)cc5[C@@H]34)cc2Br)CC1 [Compound 1.23]	8.27	9.28	9.62	8.96
Cc1cc(C(=O)N[C@@H]2[C@H]3Oc4ccc(Oc5ccnc6c5CCC(=O)N6)cc4[C@@H]23)ccc1CN1CCN(C)CC1 [Compound 1.58]	8.26	8.74	9.51	8.92
O=C1CCc2c(Oc3ccc4c(c3)[C@H]3[C@H](NC(=O)c5ccc(CO)c(C(F)(F)F)c5)[C@H]3O4)ccnc2N1 [Compound 1.76, 4-(hydroxymethyl)-N-((1S,1aS,6bS)-5-((7-oxo-5,6,7,8-tetrahydro-1,8-naphthyridin-4-yl)oxy)-1a,6b-dihydro-1H-cyclopropa[b]benzofuran-1-yl)-3-(trifluoromethyl)benzamide]	8.43	7.51	7.74	8.38
CN1C(C)(C)CC(Oc2ccc(C(=O)N[C@@H]3[C@H]4Oc5ccc(Oc6ccnc7c6CCC(=O)N7)cc5[C@@H]34)cc2C(F)(F)F)CC1(C)C [Compound 1.77, N-((1S,1aS,6bS)-5-((7-oxo-5,6,7,8-tetrahydro-1,8-naphthyridin-4-yl)oxy)-1a,6b-dihydro-1H-cyclopropa[b]benzofuran-1-yl)-4-((1,2,2,6,6-pentamethylpiperidin-4-yl)oxy)-3-(trifluoromethyl)benzamide]	7.89			
CCN1CCN(Cc2ccc(C(=O)N[C@@H]3[C@H]4Oc5ccc(Oc6ccnc7c6CCC(=O)N7)cc5[C@@H]34)cc2C)CC1 [Compound 1.57, 4-((4-ethylpiperazin-1-yl)methyl)-3-methyl-N-((1S,1aS,6bS)-5-((7-oxo-5,6,7,8-tetrahydro-1,8-naphthyridin-4-yl)oxy)-1a,6b-dihydro-1H-cyclopropa[b]benzofuran-1-yl)benzamide]	8.19	8.51	9.30	8.82
CCN1CCN(Cc2ccc(C(=O)N[C@@H]3[C@H]4Oc5ccc(Oc6ccnc7c6CCC(=O)N7)cc5[C@@H]34)cc2Br)CC1 [Compound 1.19]	8.27	8.96	9.57	9.26
COc1cc(C(=O)N[C@@H]2[C@H]3Oc4ccc(Oc5ccnc6c5CCC(=O)N6)cc4[C@@H]23)ccc1CN1CCN(C)CC1 [Compound 1.72]	8.11	7.49	9.00	8.52
CN1CCN(Cc2ccc(C(=O)N[C@@H]3[C@H]4Oc5ccc(Oc6ccnc7c6CCC(=O)N7)cc5[C@@H]34)cc2Cl)CC1 [Compound 1.22]	8.32	9.33	9.64	9.10
C[C@@H]1CN(Cc2ccc(C(=O)N[C@@H]3[C@H]4Oc5ccc(Oc6ccnc7c6CCC(=O)N7)cc5[C@@H]34)cc2C(F)(F)F)C[C@H](C)O1 [Compound 1.13]	7.07	7.33	7.96	7.23

Further lines, results first:

pIC50 (B-Raf (V600E))	pIC50 [1]	pIC50 (EGFR L858R kinase domain)	pIC50 (WT EGFR kinase domain)	SMILES
7.68	9.74	9.59	8.89	CCN1CCC(=Cc2ccc(C(=O)N[C@@H]3[C@H]4Oc5ccc(Oc6ccnc7c6CCC(=O)N7)cc5[C@@H]34)cc2C(F)(F)F)CC1 [Compound 1.75, 4-((1-ethylpiperidin-4-ylidene)methyl)-N-((1S,1aS,6bS)-5-((7-oxo-5,6,7,8-tetrahydro-1,8-naphthyridin-4-yl)oxy)-1a,6b-dihydro-1H-cyclopropa[b]benzofuran-1-yl)-3-(trifluoromethyl)benzamide]
	6.05	6.54	6.09	CCCCCCCCCCCC(=O)N[C@@H]1[C@H]2Oc3ccc(Oc4ccnc5c4CCC(=O)N5)cc3[C@@H]12 [Compound 1.28]
7.24	9.09	9.33	8.39	CCN1CCN(Cc2ccc(C(=O)N[C@@H]3[C@H]4Oc5ccc(Oc6ccnc(N)c6)cc5[C@@H]34)cc2C(F)(F)F)CC1 [Compound 2.5, N-((1S,1aS,6bS)-5-((2-aminopyridin-4-yl)oxy)-1a,6b-dihydro-1H-cyclopropa[b]benzofuran-1-yl)-4-((4-ethylpiperazin-1-yl)methyl)-3-(trifluoromethyl)benzamide]
8.89	6.94	7.55	7.38	O=C1CCc2c(Oc3ccc4c(c3)[C@H]3[C@H](NC(=O)c5cncc(C(F)(F)F)c5)[C@H]3O4)ccnc2N1 [Compound 1.62]
8.16	7.47	9.04	8.74	CCN1CCN(Cc2ccc(C(=O)N[C@@H]3[C@H]4Oc5ccc(Oc6ccnc7c6CCC(=O)N7)cc5[C@@H]34)cc2OC)CC1 [Compound 1.73]
8.09	7.96	8.96	8.72	CC1CN(Cc2ccc(C(=O)N[C@@H]3[C@H]4Oc5ccc(Oc6ccnc7c6CCC(=O)N7)cc5[C@@H]34)cc2C(F)(F)F)CC(C)N1 (stereo partly drawn) [Compound 1.65, 4-((3,5-dimethylpiperazin-1-yl)methyl)-N-((1S,1aS,6bS)-5-((7-oxo-5,6,7,8-tetrahydro-1,8-naphthyridin-4-yl)oxy)-1a,6b-dihydro-1H-cyclopropa[b]benzofuran-1-yl)-3-(trifluoromethyl)benzamide]
8.82	6.63	7.12	6.88	O=C1CCc2c(Oc3ccc4c(c3)[C@H]3[C@H](NC(=O)c5ccnc(C(F)(F)F)c5)[C@H]3O4)ccnc2N1 [Compound 1.61]
7.62	5.89	6.64	6.20	CCCCCCCCCC(=O)N[C@@H]1[C@H]2Oc3ccc(Oc4ccnc5c4CCC(=O)N5)cc3[C@@H]12 [Compound 1.70]
7.77	10.12	10.07	9.37	CCN1CCN(Cc2ccc(C(=O)N[C@@H]3[C@H]4Oc5ccc(Oc6ccnc7c6CNC(=O)N7)cc5[C@@H]34)cc2C(F)(F)F)CC1 [Compound 2.6, 4-((4-ethylpiperazin-1-yl)methyl)-N-((1S,1aS,6bS)-5-((2-oxo-1,2,3,4-tetrahydropyrido[2,3-d]pyrimidin-5-yl)oxy)-1a,6b-dihydro-1H-cyclopropa[b]benzofuran-1-yl)-3-(trifluoromethyl)benzamide]
7.92	9.34	> 9.60	8.96	CCN1CCC(Oc2ccc(C(=O)N[C@@H]3[C@H]4Oc5ccc(Oc6ccnc7c6CCC(=O)N7)cc5[C@@H]34)cc2C(F)(F)F)CC1 [Compound 1.64]
8.44	7.09	7.89	8.03	CN(C)Cc1cc(C(=O)N[C@@H]2[C@H]3Oc4ccc(Oc5ccnc6c5CCC(=O)N6)cc4[C@@H]23)cc(C(F)(F)F)c1 [Compound 1.66]
8.70	6.11	6.94	6.93	CCCCCCCC(=O)N[C@@H]1[C@H]2Oc3ccc(Oc4ccnc5c4CCC(=O)N5)cc3[C@@H]12 [Compound 1.69]
8.24				CCN1CCN(Cc2ccc(C(=O)N[C@@H]3[C@H]4Oc5ccc(Oc6ccnc7c6CCC(=O)N7)cc5[C@@H]34)cc2Cl)CC1 [Compound 1.18]
	8.57	9.34	9.16	C[C@@H]1CN(Cc2ccc(C(=O)N[C@@H]3[C@H]4Oc5ccc(Oc6ccnc7c6CCC(=O)N7)cc5[C@@H]34)cc2C(F)(F)F)CCN1 [Compound 1.30]
8.77				CCN1CCN(Cc2cc(F)cc(C(=O)N[C@@H]3[C@H]4Oc5ccc(Oc6ccnc7c6CCC(=O)N7)cc5[C@@H]34)c2)CC1 [Compound 1.6]
